What all share (type): physicochemical
Series [1] is described as follows: Chemical stability of tablet cores (5% drug loading), open dish, HPLC/Purity analysis. The conditions noted are these: 5% active drug loading; for % -(2S,4R)-Epimer 6 weeks @ 50° C./75% RH: open dish. How it is done: Comparative chemical and physical stability data was generated for tablet cores comprising glasdegib dihydrochloride monohydrate (diHCl.H2O) and glasdegib maleate (Form 1) stored at 50° C./75% RH for 6 weeks. The tablet cores were prepared by dry granulation processing in a formulation composition comprising microcrystalline cellulose, dicalcium phosphate, sodium starch glycolate and magnesium stearate at an active drug loading level of 5%. The tablet cores were stored in open dish (no packaging) orientation in a 50° C./75% RH chamber and analyzed after 6 weeks of storage. The analytical testing included HPLC/Purity analysis and solid state NMR (for solid form).
The primary degradation product monitored is the epimeric 1-((2S,4R)-2-(1H-benzo[d]imidazol-2-yl)-1-methylpiperidin-4-yl)-3-(4-cyanophenyl)urea, which has the structure: […]

Series [2] in a line: Comparative thermal stability by Differential Scanning Calorimetry (DSC). The settings on record: 25° C. to 250° C. at 10° C./min, dry nitrogen purge. The method, then: Comparative thermal stability data was generated for glasdegib dihydrochloride monohydrate (diHCl.H2O) and glasdegib maleate (Form 1). Differential Scanning calorimetry (DSC) measurements were performed with Discovery DSC (TA instruments) equipped with a refrigerated cooling accessory. All the experiments were performed in standard/Tzero aluminum pans. The cell constant was determined using indium and temperature calibration was performed using indium and tin as standards. All the measurements were done under continuous dry nitrogen purge (50 mL/min). Approximately 2-5 mg of solid sample was weighed into a standard/Tzero aluminum pan, sealed non-hermetically and heated from 25° C. to 250° C. at 10° C./min heating rate. The experimental data were analyzed using commercially available software (TA Universal Analysis 2000/Trios software, TA Instruments).
In general terms: In DSC, transitions show as peaks or steps in heat flow.

The nature of series [3]: Accelerated 21-day stability study of tablets, shelf-life prediction from (2S,4R)-epimer formation. The conditions noted are these: 60 cc HDPE bottle, 30 count tablets, 25° C./60% RH, epimer limit NMT 0.5%. How it is done:
See Waterman et al., Pharmaceutical Research, 24(4): 780-790 (2007). The tablets were stored in open glass bottles and exposed to various temperature, humidities and durations.
The recommended packaging for the glasdegib dihydrochloride monohydrate tablets is HDPE/IS Bottle, with desiccant. The labeled storage condition of this product is 15-25° C.
The recommended packaging for the glasdegib maleate tablets is HDPE/IS Bottle and no desiccant is required. The labeled storage condition of this product is 15-25° C.

Where a name gives a salt, the structure may show the parent alone.

For `CN1CC[C@@H](NC(=O)Nc2ccc(C#N)cc2)C[C@@H]1c1nc2ccccc2[nH]1` [Glasdegib dihydrochloride monohydrate], the “% -(2S,4R)-Epimer 6 weeks @ 50° C./75% RH” value in series [1] amounted to 2.75%. Besides, the “Thermal Stability (stable up to)” value in series [2] was “Stable up to 50 °C”. Also, the “shelf-life predicted, with desiccant” value in series [3] (with desiccant) is listed as “approximately 5 years”. Also, in series [3], the “shelf-life predicted, stored without desiccant” value was “less than 2 years”.

Consider `CN1CC[C@@H](NC(=O)Nc2ccc(C#N)cc2)C[C@@H]1c1nc2ccccc2[nH]1.O=C(O)/C=C\C(=O)O` [Glasdegib maleate (Form 1), 1-((2R,4R)-2-(1H-benzo[d]imidazol-2-yl)-1-methylpiperidin-4-yl)-3-(4-cyanophenyl)urea maleate], for which the “% -(2S,4R)-Epimer Initial Level” value in series [1] (before storage) is 0.024%. Besides, in series [1], the “% -(2S,4R)-Epimer 6 weeks @ 50° C./75% RH” value came to 0.55%. In addition, the “Thermal Stability (stable up to)” value in series [2] was “Stable up to 207 °C”. In addition, the “shelf-life predicted, stored without desiccant” value in series [3] was “more than 6 years”.

(Values after patent US11891373B2, “Crystalline forms of 1-((2R,4R)-2-(1H-benzo[d]imidazol-2-yl)-1-methylpiperidin-4-yl)-3-(4-cyanophenyl)urea maleate” (priority 2015, dated 2024).)
